How the values were obtained:
[1] = test system: mucoid P. aeruginosa strains derived from cystic fibrosis patients; assay: OPK assay, mucoid isolates; type: cell-based, Pseudomonas aeruginosa; settings: FIG. 2D
Method: This example describes the evaluation of prioritized human IgG1 antibodies to promote OPK of P. aeruginosa. […] OPK assays were performed as described in (DiGiandomenico, A., et al., Infect Immun 72, 7012-7021 (2004)), with modifications. Briefly, assays were performed in 96-well plates using 0.025 ml of each OPK component; P. aeruginosa strains; diluted baby rabbit serum; differentiated HL-60 cells; and monoclonal antibody. In some OPK assays, luminescent P. aeruginosa strains, which were constructed as described (Choi, K. H., et al., Nat Methods 2, 443-448 (2005)), were used. Luminescent OPK assays were performed as described above but with determination of relative luciferase units (RLUs) using a Perkin Elmer ENVISION Multilabel plate reader (Perkin Elmer).
The ability of Cam-003 to mediate OPK activity against representative non-mucoid strains from clinically relevant O-antigen serotypes and against mucoid P. aeruginosa strains which were derived from cystic fibrosis patients was evaluated.

[2] = test system: Psl on in vivo passaged P. aeruginosa strains; assay: Flow cytometry of in vivo passaged P. aeruginosa; type: binding, Pseudomonas aeruginosa
Text: For IgG expression, the VH and VL chains of selected antibodies were cloned into human IgG1 expression vectors, co-expressed in HEK293 cells, and purified by protein A affinity chromatography as described (Persic, L., et al., Gene 187, 9-18 (1997)). Human IgG1 antibodies made with the variable regions from these selected serotype independent phage were confirmed for P. aeruginosa specificity and prioritized for subsequent analysis by whole cell binding to dominant clinically relevant serotypes by FACS analysis (FIG. 1F), since this method is more stringent than ELISA. For the flow cytometry based binding assays mid-log phase P. aeruginosa strains were concentrated in PBS to an OD650 of 2.0. After incubation of antibody (10 μg/mL) and bacteria (˜1×10^7 cells) for 1 hr at 4° C. with shaking, washed cells were incubated with an ALEXA FLUOR […] goat anti-human IgG antibody (Invitrogen, Carlsbad, Calif.) for 0.5 hr at 4° C. Washed cells were stained with BACLIGHT™ green bacterial stain as recommended (Invitrogen, Carlsbad, Calif.). Samples were run on a LSR II flow cytometer (BD Biosciences) and analyzed using BD FacsDiva (v. 6.1.3) and FlowJo (v. 9.2; TreeStar).
To test if Psl expression in vivo is maintained, mice were injected intraperitoneally with P. aeruginosa isolates followed by harvesting of bacteria by peritoneal lavage four hours post-infection. The presence of Psl was analyzed with a control antibody and Cam-003 by flow cytometry as conditions for antibody binding are more stringent and allow for quantification of cells that are positive or negative for Psl expression. For ex vivo binding, bacterial inocula (0.1 ml) was prepared from an overnight TSA plate and delivered intraperitoneally to BALB/c mice. At 4 hr. following challenge, bacteria were harvested, RBCs lysed, sonicated and resuspended in PBS supplemented with 0.1% Tween-20 and 1% BSA. Samples were stained and analyzed as previously described in Example 1. […] Within the inocula, Psl was not detected for strain 6077 and was minimally detected for strains PAO1 (O5) and 6206 (O11-cytotoxic).
The level of Psl expression/accessibility on the surface of P. aeruginosa strains PAO1 and 6206 in the acute pneumonia model was also assessed. Bacteria prepared from overnight-incubated, confluent plates, as described above, were intranasally administered to BALB/c mice. At 4 and 24 hours post-infection, bacteria were recovered from the lungs by bronchoalveolar lavage. Samples were stained and analyzed as previously described in Example 1.

[3] = test system: Psl (enriched carbohydrate purified from PAO1ΔwbpL/algD/pelA); assay: Psl capture binding assay (FORTEBIO OCTET 384); parameters: species or system Pseudomonas aeruginosa; settings: FIG. 3K
Method: To confirm that all of the antibodies bound to the same antigen, a Psl capture binding assay was performed using a FORTEBIO® OCTET® 384 instrument as described above. The antigen was proteinase K-treated enriched carbohydrate purified from PAO1ΔwbpL/algD/pelA (O-antigen-, alginate- and Pel exopolysaccharide-deficient). Individual antibodies were bound to aminopropylsilane biosensors followed by blocking and the addition of the enriched carbohydrate antigen. After washing to remove unbound antigen, binding of unlabelled mAbs to captured antigen was assessed.

Substance: Cam-003: human IgG1 anti-Psl monoclonal antibody, VH SEQ ID NO: 1 and VL SEQ ID NO: 2
- OPK activity [1]: mediated potent killing of all mucoid P. aeruginosa isolates that were tested
- staining of bacteria by flow cytometry ([2]; 6206, bronchoalveolar lavage 4 hours post-infection, FIG. 5D): minimal
- staining of bacteria by flow cytometry ([2]; PAO1, bronchoalveolar lavage 4 hours post-infection, FIG. 5D): Strong Cam-003 staining
- staining of bacteria by flow cytometry ([2]; PAO1 and 6206, bronchoalveolar lavage 24 hours post-infection, FIG. 5E): strong Cam-003 staining
- reactivity by flow cytometry after in vivo passage ([2]; PAO1ΔpslA): unable to react with Cam-003
- staining of bacteria by flow cytometry ([2]; three wild type strains harvested by peritoneal lavage 4 hr after intraperitoneal challenge, FIG. 5C): strong Cam-003 staining
- reactivity of unlabelled mAb to captured Psl [3]: reacted
- capture of Psl antigen by biosensor-bound antibody ([3]; antibody bound to aminopropylsilane biosensors): capable of capturing antigen
